Like-named read-outs stand apart in the source and are kept apart here.
Tests used:
[1] = test system: adalimumab-producing CHO cell line; assay: Example 1 oligosaccharide analysis, batch shake flasks, CDM GIA-1; assay type: cell-based, Chinese Hamster
Method: The studies were performed in either a batch process in shake flasks or a fed-batch process in 3 L bioreactors.
Growth and production media for the adalimumab-producing CHO cell line were prepared using a proprietary Life Technologies Gibco chemically defined media, GIA-1. […] All media were filtered through Corning 0.5 L or 1 L filter systems 0.22 μm Poly(Ether Sulfone) (PES) and stored at 4° C. until use.
The cell line utilized for both studies was generated from the adalimumab-producing CHO cell utilized in Example 3 by adapting it to chemically defined GIA-1 media for 7 (2 to 3 day each) passages in a combination of 250 mL and 500 mL Corning vented non-baffled shake flasks before freezing.
Upon thaw, for the batch shake flask study, cells were expanded for 3 to 5 (2 to 3 day each) passages in a combination of 250 mL and 500 mL Corning vented non-baffled shake flasks. Production cultures were initiated in duplicate 500 mL Corning vented non-baffled shake flasks (200 mL working volume) at an initial viable cell density (VCD) of approximately 0.5×10^6 cells/mL. Cultures were maintained on orbital shakers at 110 revolutions per minute (RPM) in a dry incubator at 35° C. and 5% CO2. The shake flask study was run in an extended batch mode by feeding a glucose solution (1.25% (v/v) of 40% solution) when the media glucose concentration fell below 3 g/L.
(§1) For all studies with CHO cell lines described throughout this invention, samples were collected daily and measured for cell density and viability using a Cedex cell counter. Retention samples for titer analysis via Poros A method were collected by centrifugation at 12,000 RPM for 5 min when the culture viability began declining. The cultures were harvested by collecting 125 mL aliquots and centrifuging at 3,000 RPM for 30 min when culture viability was near or below 50%. All supernatants were stored at −80° C. until analysis.
(§2) For all studies, the harvest samples were Protein A purified and prepared for the oligosaccharide assay using the following procedures. As a first step in the process of establishing the identity and quantifying the oligosaccharides, they are released from the protein by enzymatic digestion with N-glycanase. Once the glycans are released, the free reducing end of each glycan is labeled by reductive amination with a fluorescent tag, 2-aminobenzamide (2-AB). The resulting labeled glycans are separated by normal-phase HPLC (NP-HPLC) in acetonitrile: 50 mM ammonium formate, pH 4.4, and detected by a fluorescence detector. Quantitation is based on the relative area percent of detected sugars. Throughout this invention, the relative area percentages of the agalactosyl fucosylated biantennary oligosaccharides, denoted as NGA2F+NGA2F-GlcNAc sum, and the galactose-containing fucosylated biantennary oligosaccharides NA1F+NA2F sum are reported and discussed.
Galactose was supplemented at the following levels in production media: 0, 10, 20, 40, and 100 mM. […] Culture growth, productivity, and product quality data for control cultures is the average of the 3 experiments.

[2] = test system: adalimumab-producing NSO cell line; assay: Example 6 oligosaccharide analysis, CDM PFBM-3/PFFM-4, fed-batch shake flasks; assay type: cell-based
Source text: as §2
Growth and production media for the adalimumab-producing NSO cell line were prepared using a proprietary Life Technologies Gibco chemically defined media, PFBM-3 basal medium plus PFFM-4 feed medium.
Upon thaw, cells were expanded for 3 to 5 (2 days each) passages in a combination of 250 mL, 500 mL, 1 L, 2 L and 3 L Corning vented non-baffled shake flasks. Production cultures were initiated in single 1 L Corning vented non-baffled shake flasks (240 mL initial working volume) at an initial VCD of approximately 2.5×10^5 cells/mL. Cultures were maintained on orbital shakers at 100 RPM in a dry incubator at 37° C. and 5% CO2. The shake flask study was run in a fed-batch mode and the culture was fed PFFM-4 as follows: 24 mL—day 2, 28.8 mL—day 4, 28.8 mL—day 6, and 28.8 mL—day 8.
Samples were collected every 2 days and measured for cell density and viability using a Cedex cell counter. Retention samples for titer analysis via Poros A method were collected daily beginning on Day 8 by centrifugation at 2,000 g for 10 min and then filtered through 0.2 μm PVDF syringe filter. The cultures were harvested on production day 10. The entire culture was collected, chilled on ice to approximately 0° C. for 1.5 hours, the cells and debris flocculated at pH 5.0 by the addition of 1M citric acid and held for 15 minutes, and centrifuged at 4000x g for 15 min at 5° C. The supernatant was passed through 0.20 μm Millipore Stericup PES filters, and, immediately post filtration, the acidified clarified cell-free harvest was neutralized with 2M Tris to pH 7.1±0.2. The cell free harvest was transferred to PETG bottles and stored at −80° C. until analysis.
Galactose was supplemented at the following levels in both production and feed media: 0, 1, 4, 5, and 10 mM.

[3] = test system: adalimumab-producing CHO cell line #3; assay: Example 5 oligosaccharide analysis, CDM GIA-1, fed-batch 3 L bioreactors; assay type: cell-based, Chinese Hamster
Method: as §1, §2
Growth and production media for the adalimumab-producing CHO cell line #3 were prepared using the proprietary Life Technologies Gibco chemically defined media, GIA-1.
Upon thaw, cells were expanded in Corning vented non-baffled shake flasks maintained on orbital shakers at 140 RPM, and in 10 L cell bags (2 L working volume) maintained at 25 RPM, 7° angle, and 0.25 SLPM airflow in a dry incubator at 36° C. and 5% CO2. Production cultures were initiated in 3 L bioreactors (1.4 L initial working volume) at 36° C., 30% dissolved oxygen, 200 RPM, and pH 6.9±0.2. A fixed split ratio of cells to media of 1:6.7 was utilized to initiate the production stage cultures. A temperature shift was performed when the culture VCD reached a value higher than 5×10^6 cells/mL. The chemically-defined feed from Life Technologies Gibco JCL-5 was added as follows: 4% (v/v)—day 2, 6%—day 4, 8%—day 6, 10%—day 8, and 10%—day 10. […] Bioreactors were harvested at a viability of approximately 50% or on production day 17, whichever condition occurred first.
Galactose was supplemented at 0 and 30 mM concentrations in both production and feed media.

[4] = test system: CHO cell line producing mAb #2
Method: as §1
Growth and production media for the mAb #2 producing CHO cell line were prepared using the proprietary Life Technologies Gibco chemically defined media, GIA-1.
Upon thaw, cells were expanded in Corning vented non-baffled shake flasks maintained on orbital shakers at 140 RPM, and in 10 L cell bags (2 L working volume) maintained at 25 RPM, 7° angle, 0.25 SLPM airflow in a dry incubator at 36° C. and 5% CO2. Production cultures were initiated in 3 L bioreactors (1.5 L initial working volume) at 36° C., 25% dissolved oxygen, 200 RPM, and pH 7.0. The chemically-defined feed from Life Technologies Gibco JCL-5 was added as follows: 3% (v/v)—day 3, 5%—day 5, 7%—day 7, 10%—day 9, and 10%—day 11. […] Bioreactors were harvested at viability of approximately 70% or below or on production day 15, whichever condition occurred first. […]

[5] = 100 μM manganese chloride alone
[6] = 0.2 μM manganese chloride alone
[7] = 0.5 μM manganese chloride alone

Molecule	decrease in the NGA2F+NGA2F-GlcNac sum ([1]; 40 mM galactose alone) [%]	maximum change in the NA1F+NA2F oligosaccharides ([1]; 100 mM galactose alone) [%]	maximum change in the NGA2F+NGA2F-GlcNac ([1]; 100 mM galactose alone) [%]	decrease in the NGA2F+NGA2F-GlcNac sum ([2]; 4 mM galactose alone) [%]	increase in the NA1F+NA2F sum ([2]; 10 mM galactose alone) [%]	maximum decrease in the NGA2F+NGA2F-GlcNac sum ([2]; 10 mM galactose alone) [%]	decrease in the NGA2F+NGA2F-GlcNac sum ([3]; 30 mM galactose alone) [%]	increase in the NA1F+NA2F sum ([3]; 30 mM galactose alone) [%]	decrease in the NGA2F+NGA2F-GlcNac sum ([1]; 40 μM manganese chloride alone) [%]	maximum change in the NA1F+NA2F oligosaccharides [1, 5] [%]	maximum change in the NGA2F+NGA2F-GlcNac [1, 5] [%]	decrease in the NGA2F+NGA2F-GlcNac sum [2, 6] [%]	increase in the NA1F+NA2F sum [2, 7] [%]	maximum decrease in the NGA2F+NGA2F-GlcNac sum [2, 7] [%]	growth profile ([4]; 25 μM manganese chloride alone)	growth profile ([4]; manganese chloride 50 μM or 75 μM)	decrease in the NGA2F+NGA2F-GlcNac sum [3, 6] [%]	increase in the NA1F+NA2F sum [3, 6] [%]	increase in the NA1F+NA2F oligosaccharides ([3]; 1 μM manganese chloride alone) [%]	maximum decrease in the NGA2F+NGA2F-GlcNac ([3]; 1 μM manganese chloride alone) [%]
O=C[C@H](O)[C@@H](O)[C@@H](O)[C@H](O)CO [galactose, D(+)Galactose]	6	7	7	2	15	14	4	3												
Manganese (II) Chloride [manganese chloride]									6	8	9	12	20	18	grew slower after production day 7	growth profiles comparable to the control culture	15	16	28	26
